Test results published in article PMC6151383 (Molecules : A Journal of Synthetic Chemistry and Natural …, 2017).
Like-named read-outs stand apart in the source and are kept apart here.

What was measured:
[1] = tested on: Staphylococcus aureus CCM 4516/08; assay: Antibacterial microdilution broth MIC, S. aureus; type: cell-based; settings: Staphylococcus aureus
[2] = tested on: Staphylococcus epidermidis H 6966/08; assay: Antibacterial microdilution broth MIC, S. epidermidis; type: cell-based; settings: Staphylococcus epidermidis
[3] = tested on: Enterococcus faecalis J 14365/08; assay: Antibacterial microdilution broth MIC, E. faecalis; type: cell-based; settings: Enterococcus faecalis, J14365/08; 48 h incubation; read-out: MIC EF 48 h
[4] = tested on: Escherichia coli CCM 4517; assay: Antibacterial microdilution broth MIC, E. coli; type: cell-based; settings: Escherichia coli, CCM4517; 48 h incubation; read-out: MIC EC 48 h
[5] = tested on: Pseudomonas aeruginosa CCM 1961; assay: Antibacterial microdilution broth MIC, P. aeruginosa; type: cell-based; settings: Pseudomonas aeruginosa, CCM1961; 48 h incubation; read-out: MIC PA 48 h
[6] = tested on: Mycobacterium tuberculosis 331/88 (H37Rv); assay: In vitro antimycobacterial MIC, M. tuberculosis; type: cell-based
[7] = tested on: Mycobacterium avium 330/88; assay: In vitro antimycobacterial MIC, M. avium; type: cell-based
[8] = tested on: Mycobacterium kansasii 235/80; assay: In vitro antimycobacterial MIC, M. kansasii 235/80; type: cell-based
M. kansasii 6509/96 = assay: In vitro antimycobacterial MIC, M. kansasii clinical isolate; type: cell-based; settings: Mycobacterium kansasii
[9] = tested on: Candida albicans ATCC 44859; assay: Antifungal microdilution broth MIC, C. albicans; type: cell-based; settings: ATCC44859, 48 h incubation, read-out: MIC CA 48 h
Candida tropicalis 156 = assay: Antifungal microdilution broth MIC, C. tropicalis; type: cell-based; settings: Candida tropicalis, 156; 48 h incubation; read-out: MIC CT 48 h
Candida krusei E28 = assay: Antifungal microdilution broth MIC, C. krusei; type: cell-based; settings: Pichia kudriavzevii, E28; 48 h incubation; read-out: MIC CK 48 h
Candida glabrata 20/I = assay: Antifungal microdilution broth MIC, C. glabrata; type: cell-based; settings: Nakaseomyces glabratus, 48 h incubation, read-out: MIC CG 48 h
Trichosporon asahii 1188 = assay: Antifungal microdilution broth MIC, T. asahii; type: cell-based; settings: Trichosporon asahii, 1188; 48 h incubation; read-out: MIC TA 48 h
[10] = tested on: Aspergillus fumigatus 231; assay: Antifungal microdilution broth MIC, A. fumigatus; type: cell-based; settings: Aspergillus fumigatus, 231; 48 h incubation; read-out: MIC AF 48 h
[11] = tested on: Lichtheimia corymbifera 272; assay: Antifungal microdilution broth MIC, L. corymbifera; type: cell-based; settings: Lichtheimia corymbifera, 272; 48 h incubation; read-out: MIC LC 48 h
[12] = tested on: Trichophyton interdigitale 445; assay: Antifungal microdilution broth MIC, T. interdigitale; type: cell-based; settings: Trichophyton interdigitale; for SI for TI: SI = IC50 (HepG2)/MIC; for MIC: 445
Candida sp. = assay: Selectivity index for Candida sp. (IC50 HepG2/MIC); type: cell-based; settings: all Candida species
[13] = tested on: Klebsiella pneumoniae D 11750/08
[14] = tested on: ESBL-positive Klebsiella pneumoniae J 14368/08
M. tuberculosis and NTM = assay: Antimycobacterial activity, panel; type: cell-based; settings: Mycobacterium tuberculosis; range over all four mycobacterial strains and incubation times; read-out: MIC, M. tuberculosis and NTM
[15] = CCM4516, 48 h incubation, read-out: MIC SA 48 h
[16] = 336 h, 14 d incubation, read-out: MIC Mtb. 331/88 14 d
[17] = 504 h, 21 d incubation, read-out: MIC Mtb. 331/88 21 d
[18] = 330/88, 336 h, 14 d incubation, read-out: MIC M. avium 330/88 14 d
[19] = 330/88, 504 h, 21 d incubation, read-out: MIC M. avium 330/88 21 d
[20] = 235/80, 168 h, 7 d incubation, read-out: MIC M. kansasii 235/80 7 d
[21] = 235/80, 336 h, 14 d incubation, read-out: MIC M. kansasii 235/80 14 d
[22] = 235/80, 504 h, 21 d incubation, read-out: MIC M. kansasii 235/80 21 d
[23] = 6509/96, 168 h, 7 d incubation, read-out: MIC M. kansasii 6509/96 7 d
[24] = 6509/96, 336 h, 14 d incubation, read-out: MIC M. kansasii 6509/96 14 d
[25] = 6509/96, 504 h, 21 d incubation, read-out: MIC M. kansasii 6509/96 21 d
[26] = 72 h incubation, read-out: MIC TI 72 h
[27] = 120 h incubation, read-out: MIC TI 120 h
[28] = H6966/08, 48 h incubation, read-out: MIC SE 48 h

Cc1ccc(O)c(C=Nc2ccc(S(=O)(=O)Nc3ncccn3)cc2)c1 [Compound 2g, 4-[(2-Hydroxy-5-methylbenzylidene)amino]-N-(pyrimidin-2-yl)benzenesulfonamide]
250 µM: MIC [8, 22]
125 µM: MIC ([2]; H6966/08, 24 h, read-out: MIC SE 24 h) | MIC ([2]; H6966/08, 48 h, read-out: MIC SE 48 h) | MIC [6, 16] | MIC [6, 17] | MIC [8, 20] | MIC [8, 21] | MIC (M. kansasii 6509/96; [25])
62.5 µM: MIC (M. kansasii 6509/96; [23]) | MIC (M. kansasii 6509/96; [24])
inactive: SI for TI [12] | SI for Candida sp. (Candida sp.)
> 500 µM: MIC [9] | MIC (Candida tropicalis 156) | MIC (Candida krusei E28) | MIC (Candida glabrata 20/I) | MIC (Trichosporon asahii 1188) | MIC [10] | MIC [11] | MIC [12, 26] | MIC [12, 27]
> 250 µM: MIC [1, 15] | MIC [3] | MIC [4] | MIC [5]
500 µM: MIC [7, 18]
>250 µM: MIC KP 24 h [13] | MIC KP 48 h [13] | MIC KP-E 24 h [14] | MIC KP-E 48 h [14]
1000 µM: MIC [7, 19]

O=S(=O)(Nc1ncccn1)c1ccc(N=Cc2c(O)cccc2Cl)cc1 [Compound 2k, 4-[(2-Chloro-6-hydroxybenzylidene)amino]-N-(pyrimidin-2-yl)benzenesulfonamide]
62.5 µM: MIC [8, 20] | MIC (M. kansasii 6509/96; [23])
inactive: SI for TI [12] | SI for Candida sp. (Candida sp.)
> 250 µM: MIC [1, 15] | MIC [2, 28] | MIC [3] | MIC [4] | MIC [5] | MIC [9] | MIC (Candida tropicalis 156) | MIC (Candida krusei E28) | MIC (Candida glabrata 20/I) | MIC (Trichosporon asahii 1188) | MIC [10] | MIC [11] | MIC [12, 26] | MIC [12, 27]
125 µM: MIC [6, 16] | MIC [6, 17] | MIC [8, 21] | MIC (M. kansasii 6509/96; [24]) | MIC (M. kansasii 6509/96; [25])
>250 µM: MIC KP 24 h [13] | MIC KP 48 h [13] | MIC KP-E 24 h [14] | MIC KP-E 48 h [14]
250 µM: MIC [7, 18] | MIC [7, 19] | MIC [8, 22]

O=S(=O)(Nc1ncccn1)c1ccc(N=Cc2cc(F)ccc2O)cc1 [Compound 2b, 4-[(5-Fluoro-2-hydroxybenzylidene)amino]-N-(pyrimidin-2-yl)benzenesulfonamide]
500 µM: MIC [7, 18]
125 µM: MIC [6, 16] | MIC [6, 17] | MIC [8, 21] | MIC (M. kansasii 6509/96; [23])
> 250 µM: MIC [1, 15] | MIC [2, 28] | MIC [3] | MIC [4] | MIC [5] | MIC [9] | MIC (Candida tropicalis 156) | MIC (Candida krusei E28) | MIC (Candida glabrata 20/I) | MIC (Trichosporon asahii 1188) | MIC [10] | MIC [11] | MIC [12, 26] | MIC [12, 27]
inactive: SI for TI [12] | SI for Candida sp. (Candida sp.)
>250 µM: MIC KP 24 h [13] | MIC KP 48 h [13] | MIC KP-E 24 h [14] | MIC KP-E 48 h [14]
62.5 µM: MIC [8, 20]
1000 µM: MIC [7, 19]
250 µM: MIC [8, 22] | MIC (M. kansasii 6509/96; [24]) | MIC (M. kansasii 6509/96; [25])

O=[N+]([O-])c1ccc(C=Nc2ccc(S(=O)(=O)Nc3ncccn3)cc2)o1 [Compound 2q, 4-{[(5-Nitrofuran-2-yl)methylene]amino}-N-(pyrimidin-2-yl)benzenesulfonamide]
62.5 µM: MIC (M. kansasii 6509/96; [23]) | MIC (M. kansasii 6509/96; [24])
31.2 µM: MIC [2, 28] | MIC ([2]; H6966/08, incubation time not given, read-out: MIC for S. epidermidis)
> 500 µM: MIC [3] | MIC [4] | MIC [11]
≥ 62.5 µM: MIC (M. tuberculosis and NTM)
125 µM: MIC ([1]; CCM4516, 24 h, read-out: MIC SA 24 h) | MIC ([1]; CCM4516, 48 h, read-out: MIC SA 48 h) | MIC [6, 16] | MIC [6, 17] | MIC [8, 20] | MIC (M. kansasii 6509/96; [25])
250 µM: MIC [5] | MIC [8, 21] | MIC [8, 22] | MIC [9] | MIC (Candida tropicalis 156) | MIC (Candida krusei E28) | MIC (Candida glabrata 20/I) | MIC [12, 26] | MIC [12, 27]
500 µM: MIC [7, 18] | MIC [7, 19] | MIC (Trichosporon asahii 1188) | MIC [10] | MIC KP 24 h [13] | MIC KP 48 h [13] | MIC KP-E 24 h [14] | MIC KP-E 48 h [14]
